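Following 48 hours of exposure in 96-well plates, responses at five concentrations were used to interpolate endpoints linearly. GI50 marks 50% less growth.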 Calls of active or inactive are those of the source. No stated cut-off is given here; in the data, active = GI50 up to about 1.1 µM and inactive = higher.
What was measured:
Assay in all cases: NCI-60 cell line screen, 48 h
Hs-578T = system: Hs-578T
SW-620 = system: SW-620
786-0 = system: 786-0
MDA-MB-435 = system: MDA-MB-435
RPMI-8226 = system: RPMI-8226
NCI-H522 = system: NCI-H522
HOP-62 = system: HOP-62
SK-MEL-2 = system: SK-MEL-2
U-251 = system: U-251
SR = system: SR
SNB-75 = system: SNB-75
IGROV-1 = system: IGROV-1
NCI-H226 = system: NCI-H226
MDA-MB-231 = system: MDA-MB-231
SK-OV-3 = system: SK-OV-3
COLO 205 = system: COLO 205
UO-31 = system: UO-31
M14 = system: M14
UACC-257 = system: UACC-257
HCT-15 = system: HCT-15
OVCAR-4 = system: OVCAR-4
RXF 393 = system: RXF 393
HT-29 = system: HT-29
DU-145 = system: DU-145
SK-MEL-5 = system: SK-MEL-5
MDA-N = system: MDA-N
HOP-92 = system: HOP-92
NCI/ADR-RES = system: NCI/ADR-RES
T47D = system: T47D
LOX IMVI = system: LOX IMVI
NCI-H460 = system: NCI-H460
Malme-3M = system: Malme-3M
SF-268 = system: SF-268
SF-539 = system: SF-539
NCI-H23 = system: NCI-H23
OVCAR-8 = system: OVCAR-8
K562 = system: K562
MCF7 = system: MCF7
CCRF-CEM = system: CCRF-CEM
OVCAR-5 = system: OVCAR-5
SK-MEL-28 = system: SK-MEL-28
ACHN = system: ACHN
MOLT-4 = system: MOLT-4
TK-10 = system: TK-10
PC-3 = system: PC-3
HCC 2998 = system: HCC 2998
BT-549 = system: BT-549
A549 = system: A549
SF-295 = system: SF-295
SN12C = system: SN12C
A498 = system: A498
KM12 = system: KM12
SNB-19 = system: SNB-19
HCT-116 = system: HCT-116
CAKI-1 = system: CAKI-1
HL-60 = system: HL-60
EKVX = system: EKVX
OVCAR-3 = system: OVCAR-3
UACC-62 = system: UACC-62

CN1CCC[N+](C)=C1c1ccccc1
GI50 (Hs-578T): > 100 µM (inactive) | GI50 (SW-620): > 100 µM (inactive) | GI50 (786-0): > 100 µM (inactive) | GI50 (MDA-MB-435): > 100 µM (inactive) | GI50 (RPMI-8226): > 100 µM (inactive) | GI50 (NCI-H522): > 100 µM (inactive) | GI50 (HOP-62): > 100 µM (inactive) | GI50 (SK-MEL-2): > 100 µM (inactive) | GI50 (U-251): > 100 µM (inactive) | GI50 (SR): > 100 µM (inactive) | GI50 (SNB-75): > 100 µM (inactive) | GI50 (IGROV-1): > 100 µM (inactive) | GI50 (NCI-H226): > 100 µM (inactive) | GI50 (MDA-MB-231): > 100 µM (inactive) | GI50 (SK-OV-3): > 100 µM (inactive) | GI50 (COLO 205): > 100 µM (inactive) | GI50 (UO-31): > 100 µM (inactive) | GI50 (M14): > 100 µM (inactive) | GI50 (UACC-257): > 100 µM (inactive) | GI50 (HCT-15): > 100 µM | GI50 (OVCAR-4): > 100 µM (inactive) | GI50 (RXF 393): > 100 µM (inactive) | GI50 (HT-29): > 100 µM (inactive) | GI50 (DU-145): > 100 µM (inactive) | GI50 (SK-MEL-5): > 100 µM (inactive) | GI50 (MDA-N): > 100 µM (inactive) | GI50 (HOP-92): > 100 µM (inactive) | GI50 (NCI/ADR-RES): > 100 µM (inactive) | GI50 (T47D): > 100 µM (inactive) | GI50 (LOX IMVI): > 100 µM (inactive) | GI50 (NCI-H460): > 100 µM (inactive) | GI50 (Malme-3M): > 100 µM (inactive) | GI50 (SF-268): > 100 µM (inactive) | GI50 (SF-539): > 100 µM (inactive) | GI50 (NCI-H23): > 100 µM (inactive) | GI50 (OVCAR-8): > 100 µM (inactive) | GI50 (K562): > 100 µM (inactive) | GI50 (MCF7): > 100 µM (inactive) | GI50 (CCRF-CEM): > 100 µM (inactive) | GI50 (OVCAR-5): > 100 µM (inactive) | GI50 (SK-MEL-28): > 100 µM (inactive) | GI50 (ACHN): > 100 µM (inactive) | GI50 (MOLT-4): > 100 µM (inactive) | GI50 (TK-10): > 100 µM (inactive) | GI50 (PC-3): > 100 µM (inactive) | GI50 (HCC 2998): > 100 µM (inactive) | GI50 (BT-549): > 100 µM (inactive) | GI50 (A549): > 100 µM (inactive) | GI50 (SF-295): > 100 µM (inactive) | GI50 (SN12C): > 100 µM (inactive) | GI50 (A498): 37.2 µM (inactive) | GI50 (KM12): > 100 µM (inactive) | GI50 (SNB-19): > 100 µM (inactive) | GI50 (HCT-116): > 100 µM (inactive) | GI50 (CAKI-1): > 100 µM (inactive) | GI50 (HL-60): > 100 µM (inactive) | GI50 (EKVX): > 100 µM (inactive) | GI50 (OVCAR-3): > 100 µM (inactive)

O=C1Nc2ccccc2SC1=C(C(=O)c1ccccc1)C(=O)c1ccccc1
GI50 (Hs-578T): 31.6 µM (inactive) | GI50 (SW-620): 34.6 µM (inactive) | GI50 (786-0): 43.7 µM (inactive) | GI50 (MDA-MB-435): 21.8 µM (inactive) | GI50 (RPMI-8226): 28.8 µM (inactive) | GI50 (NCI-H522): 20.4 µM (inactive) | GI50 (HOP-62): 46.7 µM (inactive) | GI50 (SK-MEL-2): 24.8 µM (inactive) | GI50 (U-251): 33.2 µM (inactive) | GI50 (SR): 17.7 µM (inactive) | GI50 (SNB-75): 51.5 µM (inactive) | GI50 (IGROV-1): 42.3 µM (inactive) | GI50 (NCI-H226): 45.8 µM (inactive) | GI50 (MDA-MB-231): 27.1 µM (inactive) | GI50 (SK-OV-3): 16 µM (inactive) | GI50 (COLO 205): 29.2 µM (inactive) | GI50 (UO-31): 53.3 µM (inactive) | GI50 (M14): 28.3 µM (inactive) | GI50 (UACC-257): 33.3 µM (inactive) | GI50 (HCT-15): 37.5 µM | GI50 (OVCAR-4): 43.2 µM (inactive) | GI50 (RXF 393): 55 µM (inactive) | GI50 (HT-29): 32.4 µM (inactive) | GI50 (DU-145): 38.1 µM (inactive) | GI50 (SK-MEL-5): 32.9 µM (inactive) | GI50 (MDA-N): 19.7 µM (inactive) | GI50 (HOP-92): 38.1 µM (inactive) | GI50 (NCI/ADR-RES): 40.1 µM (inactive) | GI50 (T47D): 53 µM (inactive) | GI50 (LOX IMVI): 31.3 µM (inactive) | GI50 (NCI-H460): 28.1 µM (inactive) | GI50 (Malme-3M): > 85.7 µM (inactive) | GI50 (UACC-62): 20.7 µM (inactive) | GI50 (SF-268): 32.1 µM (inactive) | GI50 (SF-539): 39.6 µM (inactive) | GI50 (NCI-H23): 29.7 µM (inactive) | GI50 (OVCAR-8): 52.4 µM (inactive) | GI50 (K562): 4.06 µM (inactive) | GI50 (MCF7): 34.9 µM (inactive) | GI50 (CCRF-CEM): 4.17 µM (inactive) | GI50 (OVCAR-5): 27.8 µM (inactive) | GI50 (SK-MEL-28): 55.6 µM (inactive) | GI50 (ACHN): 42.1 µM (inactive) | GI50 (MOLT-4): 1.04 µM (active) | GI50 (TK-10): 63.4 µM (inactive) | GI50 (PC-3): 26.3 µM (inactive) | GI50 (HCC 2998): 22.2 µM (inactive) | GI50 (BT-549): 30.5 µM (inactive) | GI50 (A549): 36.6 µM (inactive) | GI50 (SF-295): 17.1 µM (inactive) | GI50 (SN12C): 24 µM (inactive) | GI50 (A498): 32.4 µM (inactive) | GI50 (KM12): 34 µM (inactive) | GI50 (SNB-19): 41.2 µM (inactive) | GI50 (HCT-116): 29.5 µM (inactive) | GI50 (CAKI-1): 60.4 µM (inactive) | GI50 (HL-60): 0.091 µM (active) | GI50 (EKVX): 34.8 µM (inactive) | GI50 (OVCAR-3): 12.3 µM (inactive)
